Key:
REV-ERBα F488A = molecular target: T1, REV-ERBα F488A (Homo sapiens, UniProt P20393, F488A); test: two-hybrid reporter assay with mutant receptor; type: cell-based; conditions: F488A vs WT
T1 construct: WT or mutant Gal4DBD- full length REV-ERBα fusion and NCoR1-VP16 fusion protein; expressed in transfected cells; host or cells: HEK293 cells with Gal4UAS luciferase reporter stably integrated
Protocol: (§1) The removal of the bulkier Phe488 sidechain may allow for the ligand binding pocket to wrap around the ligand more tightly, which may explain the higher activity of this mutant REV-ERB.
(§2) The NCoR-Vp16 plasmid and REV-ERBα/β-FL GAL4-DBD wild-type or point mutation plasmids were incubated with the transfection agent, Lipofectamine 2000. GFP plasmid was also in the transfection mix to confirm transfection efficiency. HEK cells were plated in 10 cm dishes for western blot analysis, and HEK UAS-luc cells were plated in 96 well plates for luciferase assay analysis. Prior to cellular adherence, transfection mix was added. The cells and transfection mix were incubated at 37 °C in a humidified atmosphere of 5% CO2. The transfection incubation lasted overnight for luciferase assays and 48 h for protein isolation/western blot analysis. For luciferase assays, REV-ERB agonists were added in an 11-point serial dilution the day following overnight transfection. Cells were incubated with the compound for 24 h, prior to luciferin addition and luminescence read out.

AR = AR (Homo sapiens, UniProt P10275); test: Gal4-UAS reporter assay for nuclear receptor specificity; type: cell-based; conditions: Gal4 DBD-NR, HEK293 cells, 10 µM
Description: (§3) We assessed the specificity of STL1267 using both in house nuclear receptor Gal4-NR reporter assays and the NIMH Psychoactive Drug Screening Program (PDSP) assays. We assessed the specificity of STL1267 in the PDSP’s radioligand displacement assays, screening for binding to off-target GPCRs, ion channels, transporters, and other drug targets (Table S1). Of the 43 targets assessed in this panel, we observed no detectable binding in 41 of them. […] Additional assessment in serotonin transporter and kappa opioid receptor activity in a functional assay may be warranted to determine absolute specificity.
(§4) Receptor RLBA Ki Receptor activity
(§5) Suppl ementary Tabl e 1. Speci fi ci ty of STL1267. […]
(§6) HEK293 cells transfected with Gal4-UAS l uc i f eras e and […]

MR = MR (Homo sapiens, UniProt P08235); test: as above; type: cell-based; conditions: Gal4 DBD-NR, HEK293 cells, 10 µM
Description: as §3, §4, §5, §6

LXRα = LXRα (Homo sapiens, UniProt Q13133); test: as above; type: cell-based; conditions: Gal4 DBD-NR, HEK293 cells, 10 µM; LXRa
Description: as §3, §4, §5, §6

TRα = molecular target: T2, TRα (Homo sapiens, UniProt P10827); test: as above; type: cell-based; conditions: Gal4 DBD-NR, HEK293 cells, 10 µM; TRa
T2 construct: purchased NIMH Psychoactive Drug Screening Program (PDSP); in-house Gal4-NR LBD cotransfection assays
Description: as §3, §4, §5, §6

VDR = VDR (Homo sapiens, UniProt P11473); test: as above; type: cell-based; conditions: Gal4 DBD-NR, HEK293 cells, 10 µM
Description: as §3, §4, §5, §6

PR = PR (Homo sapiens, UniProt P06401); test: as above; type: cell-based; conditions: Gal4 DBD-NR, HEK293 cells, 10 µM
Description: as §3, §4, §5, §6

ERβ = ERβ (Homo sapiens, UniProt Q92731); test: as above; type: cell-based; conditions: Gal4 DBD-NR, HEK293 cells, 10 µM; ERb
Description: as §3, §4, §5, §6

ERα = ERα (Homo sapiens, UniProt P03372); test: as above; type: cell-based; conditions: Gal4 DBD-NR, HEK293 cells, 10 µM; ERa
Description: as §3, §4, §5, §6

RARα = RARα (Homo sapiens, UniProt P10276); test: as above; type: cell-based; conditions: Gal4 DBD-NR, HEK293 cells, 10 µM; RARa
Description: as §3, §4, §5, §6

RXRα = RXRα (Homo sapiens, UniProt P19793); test: as above; type: cell-based; conditions: Gal4 DBD-NR, HEK293 cells, 10 µM; RXRa
Description: as §3
Receptor RLBA Ki Receptor activity […]
as §6

[1] = system: REV-ERBα F497A, F443A, L480A, F439A, and F484A; test: two-hybrid reporter assay with mutant receptors; type: cell-based, human; conditions: F484A vs WT
Protocol: as §1, §2

[2] = mouse liver microsome stability assay; type: in vitro ADME; conditions: liver microsomes
Description: We thank the reviewers for the constructive comments, and we have responded to each of the […]
Overall, this is a commendable structure-function study on the transcriptional repressor, REV-ERBα. It includes the identification of an agonist that belongs to the non-heme class of small ligands. The study combines cell-based and in vitro, in vivo, and crystallographic analyses of the ligand-receptor molecular complex.
However, as a spring-board for therapeutic drug discovery, there are a few additional issues that may need to be clarified.
1. In the HEK293 2-hybrid assay, the ERB agonists are described as activators of transcription.
Perhaps, they would be more appropriately described as 'repressors'.
We have updated the manuscript to clarify this issue. In the original manuscript, we used the following to describe how the 2-hybrid assay switches agonists from repressors to activators to allow for better resolution of activity, “This format of the assay essentially functions as a mammalian 2-hybrid assay and detects REVERB agonists as activators of transcription effectively enhancing the sensitivity of such an assay from the typical one hybrid system that detects enhancement of transcriptional repression.” […]

Sequence of LXRα (Q13133 209-447 limits assumed): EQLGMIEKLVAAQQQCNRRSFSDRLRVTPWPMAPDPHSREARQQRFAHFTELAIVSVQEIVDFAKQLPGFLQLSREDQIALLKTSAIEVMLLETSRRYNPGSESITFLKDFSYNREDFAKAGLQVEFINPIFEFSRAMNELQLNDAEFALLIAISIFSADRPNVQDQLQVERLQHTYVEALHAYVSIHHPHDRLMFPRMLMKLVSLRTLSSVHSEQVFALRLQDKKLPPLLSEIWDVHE
Sequence of PR (P06401 679-933 limits assumed): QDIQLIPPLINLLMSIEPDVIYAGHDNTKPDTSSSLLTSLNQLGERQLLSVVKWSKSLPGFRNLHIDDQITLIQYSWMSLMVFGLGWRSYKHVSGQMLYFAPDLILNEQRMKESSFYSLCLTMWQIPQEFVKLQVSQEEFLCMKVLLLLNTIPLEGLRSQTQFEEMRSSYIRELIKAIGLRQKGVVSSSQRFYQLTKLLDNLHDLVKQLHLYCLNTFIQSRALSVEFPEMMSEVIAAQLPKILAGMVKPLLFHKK
Sequence of MR (P08235 726-984 limits assumed): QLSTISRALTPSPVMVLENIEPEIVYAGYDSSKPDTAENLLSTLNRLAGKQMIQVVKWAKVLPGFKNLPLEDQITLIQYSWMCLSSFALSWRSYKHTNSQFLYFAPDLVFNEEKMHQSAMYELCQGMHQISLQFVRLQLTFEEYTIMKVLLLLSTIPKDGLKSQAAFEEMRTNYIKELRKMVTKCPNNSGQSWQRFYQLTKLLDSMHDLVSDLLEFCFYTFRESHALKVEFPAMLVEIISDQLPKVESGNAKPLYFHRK
T2 sequence (P10827 1-410 isoform P10827-2): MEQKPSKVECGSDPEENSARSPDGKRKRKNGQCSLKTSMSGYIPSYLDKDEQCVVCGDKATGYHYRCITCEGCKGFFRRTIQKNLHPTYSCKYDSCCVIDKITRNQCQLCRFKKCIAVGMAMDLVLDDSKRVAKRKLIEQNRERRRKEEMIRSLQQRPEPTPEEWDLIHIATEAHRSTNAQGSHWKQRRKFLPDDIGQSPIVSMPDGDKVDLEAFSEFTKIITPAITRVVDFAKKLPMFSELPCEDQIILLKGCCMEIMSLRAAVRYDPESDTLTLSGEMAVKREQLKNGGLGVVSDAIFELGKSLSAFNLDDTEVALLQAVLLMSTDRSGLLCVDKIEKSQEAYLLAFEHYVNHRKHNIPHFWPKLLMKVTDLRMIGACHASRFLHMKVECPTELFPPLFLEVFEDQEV
Sequence of VDR (P11473 127-427 limits assumed): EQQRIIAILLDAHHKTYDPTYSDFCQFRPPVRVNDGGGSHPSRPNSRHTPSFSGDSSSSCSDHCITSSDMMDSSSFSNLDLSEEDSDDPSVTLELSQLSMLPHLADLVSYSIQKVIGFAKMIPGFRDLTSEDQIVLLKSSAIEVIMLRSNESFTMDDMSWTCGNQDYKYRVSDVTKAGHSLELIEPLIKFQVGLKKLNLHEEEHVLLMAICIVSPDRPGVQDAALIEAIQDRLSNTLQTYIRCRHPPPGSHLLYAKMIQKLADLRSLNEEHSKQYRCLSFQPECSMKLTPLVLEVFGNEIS
T1 sequence (P20393 whole entry F488A, the tested form may be a part): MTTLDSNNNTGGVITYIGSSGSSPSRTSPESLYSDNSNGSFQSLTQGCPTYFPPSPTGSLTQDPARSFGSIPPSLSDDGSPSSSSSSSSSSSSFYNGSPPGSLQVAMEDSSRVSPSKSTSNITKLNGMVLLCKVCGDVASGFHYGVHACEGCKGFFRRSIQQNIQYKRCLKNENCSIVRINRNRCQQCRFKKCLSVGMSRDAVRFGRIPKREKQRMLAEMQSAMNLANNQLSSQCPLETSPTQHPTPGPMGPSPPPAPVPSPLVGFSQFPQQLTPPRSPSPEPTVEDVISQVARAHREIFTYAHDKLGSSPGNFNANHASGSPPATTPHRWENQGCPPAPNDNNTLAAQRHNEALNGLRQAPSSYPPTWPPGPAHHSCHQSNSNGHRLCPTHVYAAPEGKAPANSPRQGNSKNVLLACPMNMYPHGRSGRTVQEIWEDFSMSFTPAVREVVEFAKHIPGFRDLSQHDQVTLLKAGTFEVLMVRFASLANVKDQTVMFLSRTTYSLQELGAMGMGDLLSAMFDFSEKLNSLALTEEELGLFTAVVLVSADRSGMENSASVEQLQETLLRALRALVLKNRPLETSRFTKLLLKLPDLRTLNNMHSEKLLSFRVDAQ
T1 sequence (O75376 whole entry partner, the tested form may be a part): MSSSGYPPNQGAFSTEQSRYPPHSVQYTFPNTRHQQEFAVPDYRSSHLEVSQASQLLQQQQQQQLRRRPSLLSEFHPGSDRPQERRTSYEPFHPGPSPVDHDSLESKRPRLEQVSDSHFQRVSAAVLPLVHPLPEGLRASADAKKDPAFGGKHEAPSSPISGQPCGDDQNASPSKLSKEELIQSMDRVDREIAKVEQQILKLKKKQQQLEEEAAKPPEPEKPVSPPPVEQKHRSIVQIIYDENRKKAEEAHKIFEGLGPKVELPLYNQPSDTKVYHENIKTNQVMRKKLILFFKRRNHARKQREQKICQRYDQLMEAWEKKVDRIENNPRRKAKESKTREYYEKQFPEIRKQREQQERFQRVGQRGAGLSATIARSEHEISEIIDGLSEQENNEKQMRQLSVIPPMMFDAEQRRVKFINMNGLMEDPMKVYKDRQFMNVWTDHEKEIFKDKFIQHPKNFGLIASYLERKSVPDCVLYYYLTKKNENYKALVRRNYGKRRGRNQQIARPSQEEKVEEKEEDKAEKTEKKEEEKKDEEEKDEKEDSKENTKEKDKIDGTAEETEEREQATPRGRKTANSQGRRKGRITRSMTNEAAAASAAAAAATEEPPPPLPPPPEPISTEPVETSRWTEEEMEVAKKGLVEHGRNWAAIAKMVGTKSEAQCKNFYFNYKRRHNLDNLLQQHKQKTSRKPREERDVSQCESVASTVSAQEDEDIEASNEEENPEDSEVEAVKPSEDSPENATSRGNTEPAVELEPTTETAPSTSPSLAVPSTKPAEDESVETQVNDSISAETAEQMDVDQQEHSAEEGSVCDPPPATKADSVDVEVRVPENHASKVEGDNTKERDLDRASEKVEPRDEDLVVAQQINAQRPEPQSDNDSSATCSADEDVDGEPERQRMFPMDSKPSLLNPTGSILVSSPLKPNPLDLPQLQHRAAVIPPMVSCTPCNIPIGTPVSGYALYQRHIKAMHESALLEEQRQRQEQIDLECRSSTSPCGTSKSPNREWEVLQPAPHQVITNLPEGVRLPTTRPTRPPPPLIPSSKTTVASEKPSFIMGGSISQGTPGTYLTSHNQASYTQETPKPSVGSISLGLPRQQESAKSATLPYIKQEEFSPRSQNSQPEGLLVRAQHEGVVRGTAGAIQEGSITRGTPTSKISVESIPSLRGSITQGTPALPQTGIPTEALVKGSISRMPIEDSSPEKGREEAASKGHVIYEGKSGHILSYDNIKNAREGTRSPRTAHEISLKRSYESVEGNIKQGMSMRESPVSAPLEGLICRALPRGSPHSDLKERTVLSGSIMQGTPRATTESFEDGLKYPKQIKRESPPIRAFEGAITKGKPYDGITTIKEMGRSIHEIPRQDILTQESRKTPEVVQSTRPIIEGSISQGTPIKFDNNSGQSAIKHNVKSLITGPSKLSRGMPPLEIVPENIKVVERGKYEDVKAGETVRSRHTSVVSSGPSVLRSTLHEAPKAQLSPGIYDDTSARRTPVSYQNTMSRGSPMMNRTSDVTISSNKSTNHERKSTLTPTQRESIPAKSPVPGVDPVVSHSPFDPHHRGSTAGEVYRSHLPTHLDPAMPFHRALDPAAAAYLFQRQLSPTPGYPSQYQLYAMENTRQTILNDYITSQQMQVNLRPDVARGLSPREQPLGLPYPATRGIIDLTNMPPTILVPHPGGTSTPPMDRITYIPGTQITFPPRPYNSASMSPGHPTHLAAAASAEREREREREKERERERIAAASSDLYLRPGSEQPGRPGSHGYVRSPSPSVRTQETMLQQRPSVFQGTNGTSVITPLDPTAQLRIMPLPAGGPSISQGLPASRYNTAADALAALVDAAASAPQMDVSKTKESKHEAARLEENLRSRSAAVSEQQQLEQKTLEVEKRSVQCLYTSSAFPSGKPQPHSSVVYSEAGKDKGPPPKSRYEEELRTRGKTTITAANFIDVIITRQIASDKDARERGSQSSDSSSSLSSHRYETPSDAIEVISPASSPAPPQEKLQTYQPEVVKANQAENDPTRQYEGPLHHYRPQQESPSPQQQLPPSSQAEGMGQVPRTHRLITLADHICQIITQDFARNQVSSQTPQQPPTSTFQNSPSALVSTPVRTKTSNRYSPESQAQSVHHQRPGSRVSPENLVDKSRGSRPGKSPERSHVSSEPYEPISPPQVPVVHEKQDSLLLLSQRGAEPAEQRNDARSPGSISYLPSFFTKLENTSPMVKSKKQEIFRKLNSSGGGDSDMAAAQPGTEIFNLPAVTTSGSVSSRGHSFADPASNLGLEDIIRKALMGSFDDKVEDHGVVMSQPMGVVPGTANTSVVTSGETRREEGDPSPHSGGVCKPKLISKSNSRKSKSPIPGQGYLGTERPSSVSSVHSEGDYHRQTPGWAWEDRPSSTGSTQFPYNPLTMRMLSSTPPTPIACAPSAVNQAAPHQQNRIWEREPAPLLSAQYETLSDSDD
Sequence of RXRα (P19793 227-462 limits assumed): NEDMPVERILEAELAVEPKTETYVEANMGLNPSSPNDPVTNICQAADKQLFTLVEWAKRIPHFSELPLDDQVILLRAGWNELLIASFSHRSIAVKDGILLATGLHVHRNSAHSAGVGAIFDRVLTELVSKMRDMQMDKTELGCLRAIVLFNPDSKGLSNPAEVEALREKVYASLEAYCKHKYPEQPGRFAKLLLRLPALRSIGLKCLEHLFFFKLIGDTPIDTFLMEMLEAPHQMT
Sequence of AR (P10275 669-920 limits assumed): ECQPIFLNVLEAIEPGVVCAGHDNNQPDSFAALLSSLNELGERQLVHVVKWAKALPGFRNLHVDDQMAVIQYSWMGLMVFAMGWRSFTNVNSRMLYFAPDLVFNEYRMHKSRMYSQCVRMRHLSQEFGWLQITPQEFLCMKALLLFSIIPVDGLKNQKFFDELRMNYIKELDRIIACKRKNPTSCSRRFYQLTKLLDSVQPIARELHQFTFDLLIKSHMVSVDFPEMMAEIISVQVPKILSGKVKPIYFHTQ

Clc1nnc2ccc(Oc3ccccc3-c3ccccc3)nn12 [STL1267]
effect of mutation on NCoR recruitment activity (REV-ERBα F488A): impressive improvement in potency and efficacy | activity (AR): did not detect activity | activity (MR): did not detect activity | activity (LXRα): did not detect activity | activity (TRα): did not detect activity | activity (VDR): did not detect activity | activity (PR): did not detect activity | activity (ERβ): did not detect activity | activity (ERα): did not detect activity | activity (RARα): did not detect activity | activity (RXRα): did not detect activity | effect of mutation on STL1267 induced REV-ERBα/NCoR interaction [1]: loss or severe reduction in activity | half-life [2]: 34 min

— article PMC9681850, “Structural basis of synthetic agonist activation of the nuclear receptor REV-ERB” (Nature Communications, 2022)
